This passage reports IC50 results from patent US20150045553A1, “PHENYLTRIAZOLE DERIVATIVE” (TOSHO PHARMACEUTICAL CO., LTD, priority 2011, published 2015).

Where a name gives a salt, the structure may show the parent alone.

The target of this test is T1, H3 receptor (Rattus norvegicus, UniProt Q9QYN8).
T1 construct: The frontal cortex dissected from rats was homogenized; from tissue; host or cells: rat frontal cortex membrane fraction
T1 sequence (Q9QYN8 whole entry): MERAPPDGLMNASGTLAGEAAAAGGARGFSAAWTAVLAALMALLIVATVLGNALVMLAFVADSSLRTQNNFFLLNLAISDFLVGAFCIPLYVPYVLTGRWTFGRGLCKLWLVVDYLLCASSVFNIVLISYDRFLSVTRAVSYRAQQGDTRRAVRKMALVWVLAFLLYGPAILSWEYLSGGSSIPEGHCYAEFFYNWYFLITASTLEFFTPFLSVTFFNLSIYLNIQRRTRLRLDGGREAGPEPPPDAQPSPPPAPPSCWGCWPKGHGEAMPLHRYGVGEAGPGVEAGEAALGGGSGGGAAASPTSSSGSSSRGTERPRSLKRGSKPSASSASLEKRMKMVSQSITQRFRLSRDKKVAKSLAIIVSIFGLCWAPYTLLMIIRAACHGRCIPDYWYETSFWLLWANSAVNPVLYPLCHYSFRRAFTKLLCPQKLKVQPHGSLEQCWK
As to the kind of experiment: Rat H3 receptor binding test (N-α-methyl[3H]histamine, frontal cortex membrane fraction). Particulars: N-α-methyl[3H]histamine 0.75 nM, room temperature, an hour. The protocol: (Test 1: Rat H3 Receptor Binding Test)
The frontal cortex dissected from rats was homogenized with a Teflon (registered trademark) homogenizer in a 50 mM Tris-HCl buffer solution (pH 7.4) containing a protease inhibitor (Complete EDTA-free; Roche Diagnostics) and 5 mM EDTA. The homogenate was centrifuged at 48,000×g for 15 minutes. The supernatant was removed and the pellet was suspended in a 50 mM Tris-HCl buffer solution (pH 7.4) containing 5 mM EDTA and centrifuged at 48,000×g for 15 minutes. The supernatant was removed and the pellet was suspended in a 50 mM Tris-HCl buffer solution (pH 7.4) containing 5 mM EDTA to give a membrane fraction. The membrane fraction (the protein content in the final reaction mixture: 75 μg), N-α-methyl[^3H]histamine (PerkinElmer; final concentration: 0.75 nM) and a test drug were mixed and subjected to reaction at room temperature for an hour. After the end of the reaction, the reaction mixture was suction filtered through a 96-well GF/C filter plate pretreated with 0.3% polyethyleneimine; the filters were then washed five times with a 50 mM Tris-HCl buffer solution (pH 7.4) containing 5 mM EDTA. After the washing, the filters were dried and a scintillator was added to measure the residual radioactivity on the filter with TopCount (PerkinElmer).
The residual radioactivity in the presence of 10 μM thioperamide was taken as indicative of nonspecific binding and the difference from the residual radioactivity in the absence of thioperamide was taken as indicative of specific binding. Each of the test drugs was dissolved and diluted in DMSO at varying concentrations to plot a dose-response curve from the corresponding residual radioactivities; the concentration of test drug that inhibited the specific binding by 50% (IC50) was determined from this curve.
In the case of `N#Cc1ncn(-c2ccc(OC3CCN(C4CCC4)CC3)cc2)n1` [Compound No. 41, 1-{4-[(1-cyclobutylpiperidin-4-yl)oxy]phenyl}-1H-1,2,4-triazole-3-carbonitrile], the IC50 (in general, the concentration that gives 50% inhibition) worked out at 6.4 nM.
`CCOC(=O)c1cn(-c2ccc(OC3CCN(C4CCC4)CC3)cc2)nn1` [Compound No. 1, ethyl 1-{4-[(1-cyclobutylpiperidin-4-yl)oxy]phenyl}-1H-1,2,3-triazole-4-carboxylate] yielded an IC50 of 5.3 nM.
`O=C(O)c1cn(-c2ccc(OC3CCN(C4CCC4)CC3)cc2)nn1` [Compound No. 17, 1-{4-[(1-cyclobutylpiperidin-4-yl)oxy]phenyl}-1H-1,2,3-triazole-4-carboxylic acid hydrochloride] registered an IC50 of 132 nM.
The result for `c1cn(-c2ccc(OC3CCN(C4CCC4)CC3)cc2)nn1` [Compound No. 23, 1-cyclobutyl-4-[4-(1H-1,2,3-triazol-1-yl)phenoxy]piperidine] reads 17 nM; that for `C[C@@H]1CCCN1CCCOc1ccc(-n2cc(C(=O)N3CCCC3)nn2)cc1` [compound 15, [1-(4-{3-[(2R)-2-methylpyrrolidin-1-yl]propoxy}phenyl)-1H-1,2,3-triazol-4-yl](pyrrolidin-1-yl)methanone], 8.9 nM.
As to `O=C(c1ncn(-c2ccc(OC3CCN(C4CCC4)CC3)cc2)n1)N1CCCC1` [Compound No. 34, (1-{4-[(1-cyclobutylpiperidin-4-yl)oxy]phenyl}-1H-1,2,4-triazol-3-yl)(pyrrolidin-1-yl)methanone], the half-maximal inhibitory concentration (IC50) was 1.3 nM.
Regarding `NC(=O)c1ncn(-c2ccc(OC3CCN(C4CCC4)CC3)cc2)n1` [Compound No. 39, 1-{4-[(1-cyclobutylpiperidin-4-yl)oxy]phenyl}-1H-1,2,4-triazole-3-carboxamide], the concentration for half-maximal inhibition (IC50) was 11 nM.
Take `CNC(=O)Cc1cn(-c2ccc(OC3CCN(C4CCC4)CC3)cc2)nn1` [compound 14, 2-(1-{4-[(1-cyclobutylpiperidin-4-yl)oxy]phenyl}-1H-1,2,3-triazol-4-yl)-N-methylacetamide]: the IC50 is 32 nM.
For the molecule `Cc1c(C(=O)N2CCCC2)nnn1-c1ccc(OC2CCN(C3CCC3)CC2)cc1` [compound 9, (1-{4-[(1-cyclobutylpiperidin-4-yl)oxy]phenyl}-5-methyl-1H-1,2,3-triazol-4-yl)(pyrrolidin-1-yl)methanone], the IC50 worked out at 24 nM.
In turn, `CCOC(=O)c1cn(-c2ccc(OCCCN3CCC[C@H]3C)cc2)nn1` [Compound No. 24, ethyl 1-(4-{3-[(2R)-2-methylpyrrolidin-1-yl]propoxy}phenyl)-1H-1,2,3-triazole-4-carboxylate] gave an IC50 of 7.4 nM.
Regarding `C[C@@H]1CCCN1CCCOc1ccc(-n2cc(C(=O)N3CCC3)nn2)cc1` [compound 16, azetidin-1-yl[1-(4-{3-[(2R)-2-methylpyrrolidin-1-yl]propoxy}phenyl)-1H-1,2,3-triazol-4-yl]methanone], the IC50 amounted to 16 nM.
For `CC(C)(C)N1CCC(Oc2ccc(-n3cc(C(N)=O)nn3)cc2)CC1` [Compound No. 31, 1-{4-[(1-tert-butylpiperidin-4-yl)oxy]phenyl}-1H−1,2,3-triazole-4-carboxamide] the value was 122 nM.
Consider `CC(=O)c1ncn(-c2ccc(OC3CCN(C4CCC4)CC3)cc2)n1` [Compound No. 40, 1-(1-{4-[(1-cyclobutylpiperidin-4-yl)oxy]phenyl}-1H-1,2,4-triazol-3-yl)ethanone hydrochloride], for which the IC50 was 6.4 nM.
The molecule `CN(C)C(=O)c1cn(-c2ccc(OC3CCN(C4CCC4)CC3)cc2)nn1` [Compound No. 26, 1-{4-[(1-cyclobutylpiperidin-4-yl)oxy]phenyl}-N,N-dimethyl-1H-1,2,3-triazole-4-carboxamide] returned an IC50 of 5.5 nM.
Molecule `O=C(c1cn(-c2ccc(OC3CCN(C4CCC4)CC3)cc2)nn1)N1CCOCC1` [Compound No. 25, (1-{4-[(1-cyclobutylpiperidin-4-yl)oxy]phenyl}-1H-1,2,3-triazol-4-yl)(morpholin-4-yl)methanone] registered an IC50 of 6.4 nM.
The result for `O=C(c1ncn(-c2ccc(OC3CCN(C4CCC4)CC3)cc2)n1)N1CCC1` [Compound No. 35, azetidin-1-yl(1-{4-[(1-cyclobutylpiperidin-4-yl)oxy]phenyl}-1H-1,2,4-triazol-3-yl)methanone] reads 0.5 nM; that for `CNC(=O)c1nnn(-c2ccc(OC3CCN(C4CCC4)CC3)cc2)c1C` [compound 11, 1-{4-[(1-cyclobutylpiperidin-4-yl)oxy]phenyl}-N,5-dimethyl-1H-1,2,3-triazole-4-carboxamide], 19 nM; that for `CC(C)(C)N1CCC(Oc2ccc(-n3cc(C#N)nn3)cc2)CC1` [Compound No. 32, 1-{4-[(1-tert-butylpiperidin-4-yl)oxy]phenyl}-1H-1,2,3-triazole-4-carbonitrile], 67 nM.
For `CC(C)(O)c1cn(-c2ccc(OC3CCN(C4CCC4)CC3)cc2)nn1` [compound 6, 2-(1-{4-[(1-cyclobutylpiperidin-4-yl)oxy]phenyl}-1H-1,2,3-triazol-4-yl)propan-2-ol] the value was 12 nM.
For `CCOc1cn(-c2ccc(OC3CCN(C4CCC4)CC3)cc2)nn1` [Compound No. 3, 1-cyclobutyl-4-[4-(4-ethoxy-1H-1,2,3-triazol-1-yl)phenoxy]piperidine], the IC50 is 5.1 nM.
`O=C(Cc1cn(-c2ccc(OC3CCN(C4CCC4)CC3)cc2)nn1)N1CCCC1` [compound 12, 2-(1-[4-[(1-cyclobutylpiperidin-4-yl)oxy]phenyl}-1H-1,2,3-triazol-4-yl)-1-(pyrrolidin-1-yl)ethanone] yielded a half-inhibitory concentration (IC50) of 16 nM.
`COCc1cn(-c2ccc(OC3CCN(C4CCC4)CC3)cc2)nn1` [Compound No. 2, 1-cyclobutyl-4-{4-[4-(methoxymethyl)-1H-1,2,3-triazol-1-yl]phenoxy}piperidine]: the half-inhibitory concentration (IC50) stood at 7.4 nM.
`c1cc(-n2cc(C3CC3)nn2)ccc1OC1CCN(C2CCC2)CC1` [Compound No. 4, 1-cyclobutyl-4-[4-(4-cyclopropyl-1H-1,2,3-triazol-1-yl)phenoxy]piperidine] gave an IC50 of 3.6 nM.
